Measurements from patent US8765433B2, “Alcohol dehydrogenases (ADH) useful for fermentive production of lower alkyl alcohols” (priority 2009, dated 2014).

Key:
Experiment in all cases: isobutyraldehyde reduction kinetics (A340, initial rates)
Format in all cases: biochemical
[1] = molecular target: T1, Geobacillus sp. WCH70 ADH (GbADH), SEQ ID NO: 37 (Parageobacillus toebii, UniProt A0A6G9J337)
T1 construct: 346 aa, begins […]) in pBADHisA, N-terminal His tag, expressed in E. coli, purified
Excerpt: (§1) This example describes preparation of ADH-gene constructs for over-expression/purification and measurement of enzyme activities using a time-course assay. Horse-liver ADH (HLADH; A-6128) was purchased from Sigma. Achromobacter xylosoxidans SadB (SadB), Saccharomyces cerevisiae ADH6 (ScADH6) and ADH7 (ScADH7), Entamoeba histolytica ADH1 (EhADH1), Bos Taurus Aldehyde Reductase (BtARD), Beijerinckia indica subsp. Indica ATCC 9039 (BiADH), Clostridium beijerinckii ADH (CbADH), Rana perezi ADH8 (RpADH8), Rattus norvegicus ADH1 (RnADH1), Thermus sp. ATN1 ADH (TADH), Phenylobacterium zucineum HLK1 ADH (PzADH), Methylocella silvestris BL2 ADH (MsADH), Acinetobacter baumannii AYE ADH (AbADH), Geobacillus sp. WCH70 ADH (GbADH), Vanderwaltozyma polyspora DSM 70294 ADH (VpADH), Mucor circinelloides ADH (McADH), and Rhodococcus erythropolis PR4ADH (ReADH) were the candidates for which subclones were prepared for protein expression and purification.
(§2) As a routine practice, the crude extracts and purified proteins were assayed for butanol oxidation activity, in order to ensure that the recombinant proteins were active throughout the purification process. […] Alcohol oxidation activities were carried out in 50 mM sodium phosphate buffer at pH 8.8 and aldehyde reduction reactions were assayed in 190 mM potassium phosphate buffer at pH 7.0. Depending on the nature of reaction being carried out, the enzyme and cofactor stocks were diluted in the reaction buffers at the respective pHs. Either buffer or cell extract prepared from the proprietary E. coli strain (with no ADH plasmid) was used as the negative control for assays with purified protein and cell-free extracts, respectively.
(§3) Kinetic constants of the ADH enzymes were calculated and compared to identify those candidate ADH enzymes with the most desirable properties for the conversion of isobutyraldehyde to isobutanol in the last step of the engineered pathway for isobutanol production. The assays for determining the kinetic constants were carried out using initial rates from the assays described above. […] The concentration of a given enzyme was such that it was conducive for the measurement of initial velocities over a 1-min time course. For each enzyme, Michaelis-Menten plots were generated with a broad range of substrate concentrations. Rough estimates of KM were obtained, based on which the assays were redesigned so as to use substrate concentrations in the range 0.5 to 10 times the KM value, to be able to obtain the appropriate kinetic constants. […] When calculating the KI for isobutanol, the same reactions were carried out in the presence of varying concentrations of isobutanol (generally 0-535 mM) in the reaction (see FIG. 7, for example). Reactions with isobutanol substrate were performed at 30° C. in 50 mM Sodium phosphate buffer, pH 8.8, containing 7.5 mM NAD. The Enzyme kinetics module (Version 1.3) of SigmaPlot 11 (Systat Software, Inc.) was used to fit data to Michaelis-Menten equations and calculate the kinetic constants. The kcat/KM is derived from the individual numbers of kcat and KM and not an experimentally determined value. The ratios of the KM, KI, and kcat/KM for each candidate enzyme as compared to the same parameter for SadB are given in Table 9.
(§4) Seven additional candidate ADH enzymes were synthesized, expressed, and assayed according to methods such as described in Example 2. Kinetic constants obtained for the indicated ADH enzymes (Phenylobacterium zucineum HLK1 ADH (PzADH), Methylocella silvestris BL2 ADH (MsADH), Acinetobacter baumannii AYE ADH (AbADH), Geobacillus sp. WCH70 ADH (GbADH), and Mucor circinelloides ADH (McADH)) are given in Table 8. A comparison of KM, KI, and kcat/KM for each candidate enzyme as compared to the same parameter for SadB are given in Table 9 as a percentage of the values determined (Table 7) for SadB. […]

[2] = molecular target: T2, Methylocella silvestris BL2 ADH (MsADH), SEQ ID NO: 35 (Methylocella silvestris, UniProt B8ELZ1)
T2 sequence (B8ELZ1 1-345): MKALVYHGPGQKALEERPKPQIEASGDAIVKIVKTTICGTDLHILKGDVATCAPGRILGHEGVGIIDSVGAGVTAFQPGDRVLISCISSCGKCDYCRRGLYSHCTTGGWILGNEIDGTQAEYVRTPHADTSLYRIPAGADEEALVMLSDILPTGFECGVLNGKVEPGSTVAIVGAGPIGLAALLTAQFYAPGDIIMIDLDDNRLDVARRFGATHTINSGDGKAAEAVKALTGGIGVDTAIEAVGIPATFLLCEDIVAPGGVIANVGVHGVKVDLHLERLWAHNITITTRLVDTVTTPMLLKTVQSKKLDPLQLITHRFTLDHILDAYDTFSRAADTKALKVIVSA
Excerpt: as §1, §2, §3, §4

[3] = molecular target: T3, Phenylobacterium zucineum HLK1 ADH (PzADH), SEQ ID NO: 34 (Phenylobacterium zucineum, UniProt B4RIA4)
T3 sequence (B4RIA4 1-345): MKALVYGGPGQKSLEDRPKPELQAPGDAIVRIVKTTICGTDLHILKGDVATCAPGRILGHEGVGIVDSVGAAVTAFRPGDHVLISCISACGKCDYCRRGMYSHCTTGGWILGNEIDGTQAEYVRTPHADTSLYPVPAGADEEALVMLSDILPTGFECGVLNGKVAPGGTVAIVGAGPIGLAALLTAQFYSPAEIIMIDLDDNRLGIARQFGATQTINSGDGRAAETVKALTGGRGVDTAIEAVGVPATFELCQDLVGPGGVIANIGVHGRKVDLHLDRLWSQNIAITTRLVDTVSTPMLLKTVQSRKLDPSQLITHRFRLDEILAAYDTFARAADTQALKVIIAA
Excerpt: as §1, §2, §3, §4

[4] = molecular target: Mucor circinelloides ADH (McADH), SEQ ID NO: 39 (Mucor circinelloides, UniProt Q66UT6)
Excerpt: as §1, §2, §3, §4

[5] = molecular target: Acinetobacter baumannii AYE ADH (AbADH), SEQ ID NO: 36
Excerpt: as §1, §2, §3, §4

T1 sequence (A0A6G9J337 entry or part of it): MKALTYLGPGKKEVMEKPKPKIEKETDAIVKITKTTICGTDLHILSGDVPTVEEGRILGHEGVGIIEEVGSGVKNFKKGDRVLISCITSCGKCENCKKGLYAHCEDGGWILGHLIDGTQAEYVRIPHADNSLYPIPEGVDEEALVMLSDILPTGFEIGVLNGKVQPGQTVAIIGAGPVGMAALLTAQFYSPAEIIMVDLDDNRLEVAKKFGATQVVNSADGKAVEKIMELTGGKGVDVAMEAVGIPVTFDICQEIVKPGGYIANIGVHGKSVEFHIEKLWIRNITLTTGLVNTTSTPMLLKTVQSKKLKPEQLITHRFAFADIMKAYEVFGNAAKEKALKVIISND
Mucor circinelloides ADH (McADH), SEQ ID NO: 39, sequence (Q66UT6 entry or part of it): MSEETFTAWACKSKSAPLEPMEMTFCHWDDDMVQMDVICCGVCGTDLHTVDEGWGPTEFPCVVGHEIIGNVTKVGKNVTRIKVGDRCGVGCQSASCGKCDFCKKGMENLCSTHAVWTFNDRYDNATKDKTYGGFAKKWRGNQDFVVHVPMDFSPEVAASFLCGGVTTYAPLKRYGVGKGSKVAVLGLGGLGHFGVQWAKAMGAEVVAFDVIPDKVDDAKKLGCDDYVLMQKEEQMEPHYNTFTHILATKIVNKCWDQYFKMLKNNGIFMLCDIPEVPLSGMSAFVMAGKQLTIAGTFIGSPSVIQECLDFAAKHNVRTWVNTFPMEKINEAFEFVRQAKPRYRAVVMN

CC(C)CO [isobutanol, 2-methylpropan-1-ol]
Ki ([1]; isobutyraldehyde reduction, varying isobutanol, NADPH specific): 13 mM
KI as a percentage of the same parameter for SadB ([1]; relative to SadB): 7%
Ki ([2]; read-out: KI (Isobutanol)): 19 mM
KI as a percentage of the same parameter for SadB ([2]; relative to SadB): 11%
Ki ([3]; read-out: KI (Isobutanol)): 13 mM
KI as a percentage of the same parameter for SadB ([3]; relative to SadB): 7%
Ki ([4]; read-out: KI (Isobutanol)): 79 mM
KI as a percentage of the same parameter for SadB ([4]; relative to SadB): 44%
KI as a percentage of the same parameter for SadB ([5]; relative to SadB): 169%

CC(C)C=O [isobutyraldehyde]
KM as a percentage of the same parameter for SadB ([1]; relative to SadB): 44%
kcat as a percentage of the same parameter for SadB ([1]; relative to SadB): 29%
kcat/KM as a percentage of the same parameter for SadB ([1]; relative to SadB): 69%
KM as a percentage of the same parameter for SadB ([2]; relative to SadB): 6%
kcat as a percentage of the same parameter for SadB ([2]; relative to SadB): 30%
kcat/KM as a percentage of the same parameter for SadB ([2]; relative to SadB): 532%
KM as a percentage of the same parameter for SadB ([3]; relative to SadB): 10%
kcat as a percentage of the same parameter for SadB ([3]; relative to SadB): 28%
kcat/KM as a percentage of the same parameter for SadB ([3]; relative to SadB): 243%
KM as a percentage of the same parameter for SadB ([4]; relative to SadB): 3000%
kcat as a percentage of the same parameter for SadB ([4]; relative to SadB): 138%
kcat/KM as a percentage of the same parameter for SadB ([4]; relative to SadB): 5%
Km ([5]; 30° C., pH 7.0, NADH specific, read-out: KM (Isobutanal)): 10 mM
kcat ([5]; isobutyraldehyde reduction, 30° C., pH 7.0, NADH specific): 99 s⁻¹
KM as a percentage of the same parameter for SadB ([5]; relative to SadB): 1020%
kcat as a percentage of the same parameter for SadB ([5]; relative to SadB): 91%
kcat/KM as a percentage of the same parameter for SadB ([5]; relative to SadB): 9%
